Assay results taken from patent US20230277591A1 (JULIUS-MAXIMILIANS-UNIVERSITÄT WÜRZBURG, priority 2017, published 2023).
Entries after “also recorded” stand apart in the source; their conditions may differ.

Key:
[1] = test system: MOLM-13 AML cells; experiment: Flow cytometric analysis of surface expression (FLT3, CD33, CD123) after FLT3 inhibitor treatment, MOLM-13; assay type: cell-based, human; conditions: for time to decrease of FLT3 expression to baseline levels after withdrawal of drug: MOLM-13, midostaurin: baseline or slightly below baseline
Protocol: (§1) Cell surface expression of FLT3 (CD135) was analyzed using a conjugated mouse-anti-human-FLT3 mAb (clone 4G8, BD Pharmagin, BD Biosciences, Germany) and mouse IgG1 isotype control (BD Pharmagin). In brief, 1×10^6 cells were washed, resuspended in 100 µL PBS/0.5% fetal calf serum and stained with 5 µL of anti-FLT3 mAb or isotype for 30 minutes at 4° C.
A complete medium change was performed every 7 days, MOLM-13 cells adjusted to 1×10^6/mL medium and 2 mL of this cell suspension plated per well in […] (Costar, Corning, NJ). After 2-3 weeks of culture with 10 nM midostaurine, MOLM-13 cells were exposed to exponentially increasing concentration of midostaurine for next 8-10 weeks to reach 50 nM midostaurin.

[2] = test system: MV4;11 AML cells; experiment: Flow cytometric analysis of surface expression after FLT3 inhibitor treatment, MV4;11; assay type: cell-based, human
Protocol: as §1

[3] = test system: THP-1 AML cells; experiment: Flow cytometric analysis of FLT3 expression after FLT3 inhibitor treatment, THP-1; assay type: cell-based, human; conditions: THP-1, wild-type FLT3
Protocol: as §1

[4] = test system: K562 erythro-myeloid leukemia; experiment: Flow cytometric analysis of FLT3 expression after FLT3 inhibitor treatment, K562; assay type: cell-based, human; conditions: K562, wild-type FLT3
Protocol: as §1

[5] = test system: JeKo-1 mantle cell lymphoma; experiment: Flow cytometric analysis of FLT3 expression after FLT3 inhibitor treatment, JeKo-1; assay type: cell-based, human; conditions: JeKo-1, wild-type FLT3
Protocol: as §1

[6] = test system: MOLM-13 AML cells; experiment: MOLM-13 xenograft model of AML in NSG mice; assay type: in vivo, mouse
Protocol: (§2) All experiments were approved by the Institutional Animal Care and Use Committees of the participating institutions. NOD.Cg-Prkdc^scid Il2rg^tm1Wjl/SzJ (NSG) mice (female, 6-8 week old) were purchased from Charles River or bred in-house. Mice were inoculated with 1×10^6 ffluc_GFP^+ MOLM-13 AML cells by tail vein injection on day 0, and received a single dose of 5×10^6 T cells (in 200 µL of PBS/0.5% FCS) by tail vein injection on day 7. Crenolanib [15 mg/kg; 200 µL of 30% glycerol formal (Sigma Aldrich, Munich, Germany)] was administered intraperitoneally (i.p.) Monday-Friday for 3 consecutive weeks. AML progression/regression was assessed by serial bioluminescence imaging following i.p. administration of D-luciferin substrate (0.3 mg/g body weight) (Biosynth, Staad, Switzerland) using an IVIS Lumina imaging system (Perkin Elmer, Waltham, Massachusetts). Data was analyzed using Living Image software (Perkin Elmer).
as §2, with “Crenolanib [15 mg/kg; 200 µL of 30% glycerol formal (Sigma Aldrich, Munich, Germany)] was administered intraperitoneally (i.p.) Monday-Friday for 3 consecutive weeks.” left out

[7] = test system: FLT3 CAR-T cells
[8] = test system: MV4;11 AML cells; experiment: Antibody-dependent cellular cytotoxicity (ADCC) assay; assay type: cell-based, human; conditions: mAb 5000 ng/mL, PBMC 50:1, 24 h
Protocol: MV4;11 cells were plated at a concentration of 1×10^6/mL in 1 mL per well in 24-well plates (Costar, Corning, NJ).
MV4;11 AML cells transduced with firefly luciferase (ffluc) were utilized for ADCC assays. MV4;11 AML cells were pre-treated with FLT3 inhibitors for 7 days or were left untreated. Target cells were co-incubated with healthy donor derived PBMCs at an effector-to-target ratio of 50:1 in triplicate wells of 96-well flat-bottom plates in the presence of solvent control, IgG1 isotype control (5000 ng/mL) or anti-FLT3 BV10 mAb (5000 ng/mL) (Biolegend, London, UK). ADCC was determined in a bioluminescence-based assay after 24 hours^40. Luciferin substrate was added to the co-culture and the decrease in luminescence signal was measured using a luminometer (Tecan, Männedorf, Switzerland). The percentage of viable cells was calculated using the following formula: % viability = bioluminescence signal in the presence of effector cells and BV10 mAb (with or without FLT3 inhibitor pre-treatment) × 100 / bioluminescence signal in the control condition.

[9] = 4G8 CAR (Example 1), crenolanib 15 mg/kg i.p.

CC1(COc2ccc3c(c2)ncn3-c2ccc3cccc(N4CCC(N)CC4)c3n2)COC1 [crenolanib]
FLT3 surface protein (MFI) compared to MOLM-13native ([1]; 10 nM midostaurin 2-3 weeks, 10 nM crenolanib 5 days, 1 nM quizartinib 5 days, p < 0.05): significantly higher levels | time to decrease of FLT3 expression to baseline levels after withdrawal of drug [1]: ≤ 2 days | FLT3 expression upon re-exposure to the drug ([1]; MOLM-13 after withdrawal): increased again | CD33 expression on MOLM-13 ([1]; inhibitor-treated vs native): not affected | CD123 expression on MOLM-13 ([1]; inhibitor-treated vs native): not affected | FLT3 expression upon exposure ([2]; MV4;11 (FLT3-ITD+/+)): increase | CD33 expression on MV4;11 ([2]; inhibitor-treated): not affected | CD123 expression on MV4;11 ([2]; inhibitor-treated): not affected | increase in FLT3 expression upon exposure [3]: did not occur | increase in FLT3 expression upon exposure [4]: did not occur | increase in FLT3 expression upon exposure [5]: did not occur | overall response rate ([6]; 4G8 CAR (Example 1), 5×10^6 T cells day 7, crenolanib 15 mg/kg i.p., n=8 per group): 0% | AML cells in peripheral blood, bone marrow and spleen at experiment endpoint [6, 9]: high degree of leukemia infiltration | antileukemia efficacy [6, 9]: only a minute antileukemia effect | FLT3 on MOLM-13 cells recovered from peripheral blood and bone marrow at experiment endpoint ([6]; crenolanib monotherapy 15 mg/kg i.p.): uniformly and strongly upregulated | effect of the drug per se on (viability and) function of FLT3 CAR-T cells [7]: not affected; also recorded: did not affect

CO[C@@H]1[C@H](N(C)C(=O)c2ccccc2)C[C@H]2O[C@]1(C)n1c3ccccc3c3c4c(c5c6ccccc6n2c5c31)C(=O)NC4 [midostaurin]
time to decrease of FLT3 expression to baseline levels after withdrawal of drug [1]: ≤ 2 days | mice with leukemia reduction (response rate) ([6]; BV10 CAR (Example 3), midostaurin experiment, BL day 7 to day 11, n=4 per group): 0% | MFI of FLT3 higher, mouse with lowest FLT3 expression vs mouse without drug ([6]; midostaurin 1 mg/kg i.p., bone marrow MOLM-13): 30% | effect of the drug per se on (viability and) function of FLT3 CAR-T cells [7]: not affected; also recorded: did not affect

B1: BV10 mAb: anti-FLT3 monoclonal antibody BV10 (Biolegend) used in ADCC assay (antibody, V domains shown)
VH: QVQLKQSGPGLVQPSQSLSITCTVSGFSLTNYGLHWVRQSPGKGLEWLGVIWSGGSTDYNAAFISRLSISKDNSKSQVFFKMNSLQADDTAIYYCARKGGIYYANHYYAMDYWGQGTSVTVSS
VL: DIVMTQSPSSLSVSAGEKVTMSCKSSQSLLNSGNQKNYMAWYQQKPGQPPKLLIYGASTRESGVPDRFTGSGSGTDFTLTISSVQAEDLAVYYCQNDHSYPLTFGAGTKLELKR
MV4;11 cells eliminated (ADCC) ([8]; crenolanib-treated MV4;11 (10 nM, 7 days)): 39% | MV4;11 cells eliminated (ADCC) ([8]; midostaurin-treated MV4;11 (50 nM, 7 days)): 26% | MV4;11 cells eliminated (ADCC) ([8]; quizartinib-treated MV4;11 (1 nM, 7 days)): 46% | MV4;11 cells eliminated (ADCC) ([8]; without FLT3 inhibitor pre-treatment): 13%
